Measurements reported in patent US7816134B2, “Method of extensive culture of antigen-specific cytotoxic T cells” (Takara Bio Inc., priority 2000, dated 2010).
Like-named read-outs stand apart in the source and are kept apart here.

Tests used:
[1] = system: anti-influenza virus memory CTLs (FluMPA2.1); assay type: cell-based, human
[2] = system: anti-influenza virus memory CTLs (FluMPA2.1); experiment: Expansion ratio of anti-influenza virus memory CTLs (FluMPA2.1), REM method (EBV-B cells added); assay type: cell-based, human; details: Example 3-2, sample 10 μg/ml during CTL induction +, addition of EBV-B cells +
[3] = system: HLA-A2.1-having EBV transformed B-cells (221A2.1); experiment: Specific cytotoxic activity of MAGE3-specific CTLs after expansion; assay type: cell-based, human; details: for Cytotoxic Activity (%): sample induction +, expansion +
Source text: (§1) CTLs prepared in item (1) of Example 2-1 were washed with 5HRPMI, and then made into a suspension having a concentration of 5×10^4 cells/ml. On the other hand, allogenic PBMCs not having HLA-A24 and HLA-A2.1 which were collected in the same manner as in item (1) of Example 1-1 were subjected to X-ray irradiation (3300R), and the cells were washed with the medium and then made into a suspension having a concentration of 5×10^6 cells/ml. These CTLs (2.5×10^4 cells) and allogenic PBMCs (1.25×10^7 cells) were suspended in 10 ml of 5HRPMI, and anti-CD3 antibody (manufactured by Janssen-Kyowa) was further added thereto so as to give a final concentration of 50 ng/ml. The mixture was placed into a flask of 12.5 cm^2 (manufactured by Falcon), and the cells were cultured in a wet-type CO2 incubator at 37° C. for 14 days. […] The expansion ratio (× times ratio) was calculated by dividing the cell count after the expansion by the cell count before the expansion.

[4] = system: anti-tumor-associated antigen(MAGE3)-specific CTLs; experiment: Expansion ratio of MAGE3-specific CTLs; assay type: cell-based, human; details: sample 10 μg/ml: induction +, 14 days
Source text: as §1

[5] = system: HLA-A2.1-having EBV transformed B-cells (221A2.1); experiment: Specific cytotoxic activity of MART1-specific CTLs after expansion, EBV transformed B-cell target; assay type: cell-based, human; details: for Cytotoxic Activity (%): target cells 221A2.1, sample induction +, expansion +, peptide addition +
Procedure: (§2) In the evaluation, as target cells, there were used HLA-A2.1-having EBV transformed B-cells which were cultured in the absence of the epitope peptide (name of cells: 221A2.1); a cancer cell line-having HIA-A2.1 which was cultured for two nights in the presence of 100 U/ml IFN-γ (name of cells: 624mel; MART1 expressed cells having HLA-A2.1); or a cancer cell line not having HLA-A2.1 (name of cells: 888mel; MART1 expressed cells not having HLA-A2.1).
(§3) Stimulation by a peptide was not added at all during this culture. On the first day of the initiation of the culture, IL-2 was added so as to have a final concentration of 120 U/ml. […] However, in the group with no addition of the sample, the sample was not added even during medium exchange.

[6] = system: anti-tumor-associated antigen(MART1)-specific CTLs; experiment: Expansion ratio of MART1-specific CTLs; assay type: cell-based, human; details: sample 10 μg/ml: induction +, 14 days
Source text: as §1

[7] = system: HLA-A2.1-having EBV transformed B-cells (221A2.1); details: for Cytotoxic Activity (%) E/T Ratio 10: Example 3-2, FluMPA2.1, sample 10 μg/ml during CTL induction +, during expansion +, addition of EBV-B cells −; for Cytotoxic Activity (%): sample induction +
[8] = system: HLA-A2.1-having EBV transformed B-cells (221A2.1); details: for Cytotoxic Activity (%) E/T Ratio 10: Example 3-2, REM method, FluMPA2.1, sample 10 μg/ml during CTL induction +, during expansion +, addition of EBV-B cells +
[9] = system: 888mel; MART1 expressed cells not having HLA-A2.1
Procedure: as §2, §3

[10] = system: HLA-A2.1-having EBV transformed B-cells (221A2.1); experiment: Cytotoxic activity of anti-tumor-associated antigen(MAGE3)-specific CTLs on the thirty-fifth day after the initiation of induction; details: 10 μg/ml

hyaluronic acid was tested, and the “Expansion Ratio” value ([1]; Example 3-2, sample 10 μg/ml during CTL induction +, during expansion +, addition of EBV-B cells −) was “× 335”, the “Expansion Ratio” value ([1]; Example 4-1, sample 10 μg/ml: induction +, expansion +, 14 days) was “× 493” and the “Expansion Ratio” value ([1]; Example 4-2, sample 10 μg/ml: induction +, expansion +, 14 days) was “× 423”. The “Expansion Ratio” value ([1]; Example 4-2, sample 10 μg/ml: induction +, expansion −, 14 days) was “× 393”, the “Expansion Ratio” value [2] was “× 587” and the “cytotoxic activity after expansion for 14 days (in words)” value ([3]; MAGE3-specific CTLs, sample 10 μg/ml during CTL induction and during expansion) was “specific, high cytotoxic activity”. The “Cytotoxic Activity (%)” value ([3]; peptide addition +, E/T ratio 2) was 50.3%, the “Cytotoxic Activity (%)” value ([3]; peptide addition +, E/T ratio 6) was 67.7% and the “Cytotoxic Activity (%)” value ([3]; peptide addition −, E/T ratio 2) was 3.6%. For the same substance, the “Expansion Ratio” value [4] was “× 217”, the “cytotoxic activity after expansion for 14 days (in words)” value ([5]; MART1-specific CTLs, sample 10 μg/ml during CTL induction and during expansion) was “specific, high cytotoxic activity” and the “Cytotoxic Activity (%)” value ([5]; E/T ratio 2) was 9.1%. The “Cytotoxic Activity (%)” value ([5]; E/T ratio 6) was 52.8%, the “Cytotoxic Activity (%)” value ([5]; E/T ratio 17) was 74.4% and the “Expansion Ratio” value [6] was “× 217”. For the same substance, the “Cytotoxic Activity (%) E/T Ratio 10” value ([7]; peptide addition +) was 60.0%, the “Cytotoxic Activity (%) E/T Ratio 10” value ([7]; peptide addition −) was 2.3% and the “Cytotoxic Activity (%)” value ([7]; Example 4-1, expansion +, peptide addition +, E/T ratio 1) was 31.1%. The “Cytotoxic Activity (%)” value ([7]; Example 4-1, expansion +, peptide addition +, E/T ratio 3) was 49.8%, the “Cytotoxic Activity (%)” value ([7]; Example 4-1, expansion +, peptide addition +, E/T ratio 10) was 90.8% and the “Cytotoxic Activity (%)” value ([7]; Example 4-1, expansion +, peptide addition +, E/T ratio 30) was 105.6%. The “Cytotoxic Activity (%)” value ([7]; Example 4-1, expansion +, peptide addition −, E/T ratio 1) was 7.3%, the “Cytotoxic Activity (%)” value ([7]; Example 4-1, expansion +, peptide addition −, E/T ratio 3) was 8.6% and the “Cytotoxic Activity (%)” value ([7]; Example 4-1, expansion +, peptide addition −, E/T ratio 10) was 13.1%. The “Cytotoxic Activity (%)” value ([7]; Example 4-1, expansion +, peptide addition −, E/T ratio 30) was 17.0%, the “Cytotoxic Activity (%)” value ([7]; Example 4-2, expansion +, peptide addition +, E/T ratio 1) was 7.2% and the “Cytotoxic Activity (%)” value ([7]; Example 4-2, expansion +, peptide addition +, E/T ratio 3) was 23.3%. The “Cytotoxic Activity (%)” value ([7]; Example 4-2, expansion +, peptide addition +, E/T ratio 10) was 59.6%, the “Cytotoxic Activity (%)” value ([7]; Example 4-2, expansion +, peptide addition +, E/T ratio 30) was 85.1% and the “Cytotoxic Activity (%)” value ([7]; Example 4-2, expansion +, peptide addition −, E/T ratio 1) was 0%. For the same substance, the “Cytotoxic Activity (%)” value ([7]; Example 4-2, expansion +, peptide addition −, E/T ratio 3) was 0%, the “Cytotoxic Activity (%)” value ([7]; Example 4-2, expansion +, peptide addition −, E/T ratio 10) was 1.9% and the “Cytotoxic Activity (%)” value ([7]; Example 4-2, expansion +, peptide addition −, E/T ratio 30) was 14.3%. For the same substance, the “Cytotoxic Activity (%)” value ([7]; Example 4-2, expansion −, peptide addition +, E/T ratio 1) was 9.9%, the “Cytotoxic Activity (%)” value ([7]; Example 4-2, expansion −, peptide addition +, E/T ratio 3) was 22.1% and the “Cytotoxic Activity (%)” value ([7]; Example 4-2, expansion −, peptide addition +, E/T ratio 10) was 47.7%. For the same substance, the “Cytotoxic Activity (%)” value ([7]; Example 4-2, expansion −, peptide addition +, E/T ratio 30) was 78.0%, the “Cytotoxic Activity (%)” value ([7]; Example 4-2, expansion −, peptide addition −, E/T ratio 1) was 3.0% and the “Cytotoxic Activity (%)” value ([7]; Example 4-2, expansion −, peptide addition −, E/T ratio 3) was 1.4%. For the same substance, the “Cytotoxic Activity (%)” value ([7]; Example 4-2, expansion −, peptide addition −, E/T ratio 10) was 4.7%, the “Cytotoxic Activity (%)” value ([7]; Example 4-2, expansion −, peptide addition −, E/T ratio 30) was 9.3% and the “cytotoxic activity after expansion for 14 days (in words)” value ([7]; sample 10 μg/ml only during CTL induction) was “specific, high cytotoxic activity”. The “Cytotoxic Activity (%) E/T Ratio 10” value ([8]; peptide addition +) was 95.5%, the “Cytotoxic Activity (%) E/T Ratio 10” value ([8]; peptide addition −) was 8.1% and the “cytotoxic activity after expansion according to the REM method (in words)” value ([8]; sample added at the stage of CTL induction prior to the expansion, EBV-B cells added) was “maintained at a high level”. For the same substance, the “Cytotoxic Activity (%)” value [9] was 0% and the “difference in the cytotoxic activity by the presence or absence of the addition during the induction” value [10] was “almost no difference”.
